Where “and” joins values, the source holds several entries; their conditions need not be identical. Equal entries are not always repeated.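 These data come from cells grown in 96-well plates and exposed to compound for 48 hours at five concentrations. Here, GI50 denotes the concentration required for 50% inhibition of growth. Definition used: TGI = concentration required for complete inhibition of growth.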
Assays:
Experiment in all cases: DTP human tumour cell line panel, 48 h
A498 renal = test system: A498 renal
CCRF-CEM leukemia = test system: CCRF-CEM leukemia
EKVX NSCLC = test system: EKVX NSCLC
HL-60(TB) leukemia = test system: HL-60(TB) leukemia
HS 578T breast = test system: HS 578T breast
KM12 colon = test system: KM12 colon
NCI-H226 lung = test system: NCI-H226 lung
SF-295 CNS = test system: SF-295 CNS
SK-MEL-28 melanoma = test system: SK-MEL-28 melanoma
UO-31 renal = test system: UO-31 renal

SMILES	GI50 (A498 renal)	TGI (A498 renal)	GI50 (CCRF-CEM leukemia)	TGI (CCRF-CEM leukemia) [µM]	GI50 (EKVX NSCLC)	TGI (EKVX NSCLC)	GI50 (HL-60(TB) leukemia)	TGI (HL-60(TB) leukemia)	GI50 (HS 578T breast)	TGI (HS 578T breast) [µM]	GI50 (KM12 colon)	TGI (KM12 colon)	GI50 (NCI-H226 lung)	TGI (NCI-H226 lung)	GI50 (SF-295 CNS)	TGI (SF-295 CNS)	GI50 (SK-MEL-28 melanoma)	TGI (SK-MEL-28 melanoma)	GI50 (UO-31 renal)	TGI (UO-31 renal)
Nc1n[nH]c(N)c1N=Nc1ccc(O)cc1	18200 nM	43.7 µM	20000 nM	63	22000 nM	67.8 µM	6440 nM	35.4 µM	21800 nM	77.8	17200 nM	74.1 µM	17700 nM	67.5 µM	23300 nM	82.5 µM	22.1 µM	63.8 µM	13700 nM	66.3 µM
CC1=C(C(=O)Nc2ccc(F)c(Cl)c2)C(c2ccccc2O)NC(=O)N1 (configuration not stated)	> 100000 nM	> 100 µM	59900 nM	> 100	> 100000 nM	> 100 µM	59600 nM	> 100 µM	76300 nM	> 100	70900 nM	> 100 µM	> 100000 nM	> 100 µM	94500 nM	> 100 µM	79.7 µM	> 100 µM	80700 nM	> 100 µM
Nc1n[nH]c2ccc([C@@H]3Nc4cc5[nH]ncc5cc4[C@H]4C5CCC(C5)[C@@H]34)cc12 (some centres not stated)	174 nM	0.822 µM	344 nM	> 40.4	485 nM	> 100 µM	298 nM	2.24 µM	369 nM	> 100	393 nM	19.1 µM	1170 nM	46.2 µM	257 nM	19.2 µM	10.5 µM	72.2 µM	626 nM	> 100 µM
COc1cccc(C2C(C#N)=C(N)Oc3c2ccc2ccccc32)c1 (configuration not stated)	10.8 nM	13.6 µM	35.3 nM	18.2	61.7 nM	19.6 µM	24.4 nM	0.0629 µM	< 13.3 nM	15.1	< 11.6 nM	2.26 µM	20.8 nM	1 µM	< 10 nM	10.7 µM	2.31 µM	24.5 µM	54 nM	14.3 µM
O=NN(CCCl)C(=O)NC1CCC(=O)NC1=O (configuration not stated)	–	470 µM	–	304	–	515 µM	–	359 µM	–	1100	–	578 µM	–	583 µM	–	331 µM	–	1030 µM	–	1250 µM
COc1ccc2c(c1)/C(=C\c1c[nH]c3ccc(OC)cc13)C(=O)N2	1820 nM	6.47 µM	2840 nM	9.33	3010 nM	15.4 µM	2970 nM	6.07 µM	2330 nM	7.66	320 nM	10.8 µM	4590 nM	25.6 µM	3670 nM	16.8 µM	4.56 µM	16.7 µM	2530 nM	11.9 µM
O=C1CSC(c2ccccc2O)N1c1nnc(Cn2ccnc2)o1 (configuration not stated)	21000 nM	46 µM	4370 nM	52.9	3500 nM	20 µM	1460 nM	> 100 µM	20500 nM	> 100	5160 nM	> 100 µM	37200 nM	> 100 µM	3110 nM	> 100 µM	13.8 µM	41.2 µM	4350 nM	> 100 µM
CCN1C(=O)N(CC)C2C1NN=c1s/c(=C\c3ccc[nH]3)c(=O)n12 (configuration not stated)	102 nM	0.622 µM	402 nM	> 100	852 nM	> 100 µM	285 nM	1.4 µM	335 nM	> 100	286 nM	> 45 µM	–	> 100 µM	334 nM	> 40.3 µM	–	> 100 µM	719 nM	> 100 µM
COc1cc2c(c(OC)c1OC)-c1c(cc3c(c1OC)OCO3)CC(C)C(C)(O)C2OC(=O)c1ccccc1 (configuration not stated)	–	> 100 µM	–	63.9	–	> 100 µM	–	48.7 µM	–	> 100	–	> 100 µM	–	> 100 µM	–	> 100 µM	–	> 100 µM	–	87.3 µM
COc1cccc(CC(C)=C(c2ccc(OCCCN(C)C)cc2)c2ccc(OCCCN(C)C)cc2)c1	3190 nM	6.37 µM	463 nM	1.13	1640 nM	5.17 µM	506 nM	1.02 µM	527 nM	1.34	628 nM	1.54 µM	2840 nM	6.95 µM	658 nM	1.87 µM	0.448 µM	0.822 µM	424 nM	0.795 µM
O=c1cccc(C#CC#CCCCO)o1	23700 nM	40.5 µM	5730 nM	> 100	3000 nM	7.6 µM	2240 nM	5.39 µM	9680 nM	25.5	834 nM	9.26 µM	13800 nM	32.5 µM	13500 nM	28.9 µM	5.85 µM	22.2 µM	2170 nM	> 100 µM
O=C1CCC(N2C(=O)c3cccc(NCCCC4CCN(CCNC(=O)c5cc6c(o5)C(=O)c5ccccc5C6=O)CC4)c3C2=O)C(=O)N1 (configuration not stated)	1410 nM	2.75 µM	2270 nM	> 71.6	1500 nM	3.34 µM	858 nM	6.16 µM	1950 nM	6.9	1290 nM	3.97 µM	1420 nM	3.76 µM	252 nM	0.711 µM	1.88 µM	4.57 µM	1370 nM	2.91 µM
O=S(=O)(NC1=NCCN1C(=S)SN1CCn2c1nsc2=S)c1cccc(OC(F)(F)F)c1	22600 nM	42 µM	2160 nM	4.22	44000 nM	> 100 µM	> 100000 nM	> 100 µM	35900 nM	> 100	10300 nM	24.5 µM	16200 nM	31.7 µM	23600 nM	63.3 µM	15.9 µM	32.6 µM	14100 nM	28.1 µM
C=CCn1c(=O)c2cnc(Nc3ccc(N4CCN(C)CC4)cc3)nc2n1-c1cccc(C(C)(C)O)n1	31.9 nM and 57.2 nM	0.364 µM and 0.448 µM	271 nM and 294 nM	–	970 nM and 1360 nM	30.1 µM and > 10 µM	272 nM and 325 nM	1.35 µM and > 3.11 µM	894 nM and 471 nM	> 60	293 nM and 364 nM	1.53 µM and 3.07 µM	456 nM and 1900 nM	5.95 µM and > 7.68 µM	480 nM and 589 nM	14.4 µM and > 10 µM	4.61 µM and 4.37 µM	20.6 µM and > 10 µM	338 nM and 280 nM	7.47 µM and > 10 µM

Source: PubChem BioAssay (NCI)
